Experimental data taken from patent US11248019B2, “Trityl-mono-GalNAc compounds and their use” (Hoffmann-La Roche Inc., priority 2016, dated 2022).

What was measured:
[1] = test system: ApoB mRNA; test: ApoB mRNA knockdown in liver and kidney by qPCR, single sc dose, sacrifice day 10 (Example 4); format: in vivo, C57BL6/J mice; settings: 0.25 mg/kg single sc dose
Experimental: (§1) Female C57BL6/J mice (5/group appr. 20 g at arrival) were injected subcutaneous (sc) with a single dose saline or 0.25 mg/kg unconjugated LNA-antisense oligonucleotide (compound F) or with 0.25 mg/kg or 0.1 mg/kg of GalNAc conjugated LNA antisense oligonucleotide (Compound C or E of the invention or reference compound G). Blood samples of 50 μl were collected pre-dosing at day minus 6, and post dosing at day 3 and 7. The animals were sacrificed at day 10 and total serum was collected as well as liver and kidney.
(§2) ApoB mRNA knockdown was analyzed by qPCR. In brief, RNA was isolated from homogenized liver and kidney using MagnaPure RNA Isolation and purification system (catalog #03604721001 and #05467535001; Roche) according to the manufacturer's instructions. RT-QPCR was done using Taqman Fast Universal PCR Master Mix 2×(Applied Biosystems Cat #4364103) and Taqman gene expression assay (mApoB, Mn01545150_m1 and mGAPDH #4352339E) following the manufacturers protocol.

[2] = Oligonucleotide content in liver and kidney by ELISA (Example 4); format: in vivo, C57BL6/J mice; settings: 0.25 mg/kg single sc dose, day 10
Experimental: as §1
The oligonucleotide content in the liver and kidney was measured using ELISA (see for example Straarup et al 2010 Nucleic Acid Res Vol 38 pp 7100-7111), results are shown in Table 6.

[3] = test system: ApoB mRNA; test: ApoB mRNA knockdown in liver and kidney by qPCR, single iv dose, sacrifice day 3 (Example 6); format: in vivo, C57BL6/J mice
Experimental: as §2
(§3) Female C57BL6/J mice (5/group appr. 20 g at arrival) were injected intravenous (iv) with a single dose saline, 0.22 mg/kg, 0.45 mg/kg or 0.89 mg/kg, of GalNAc conjugated LNA antisense oligonucleotide (Compound H, I or J of the invention) or the naked reference compound F. Blood samples of 50 μl were collected pre-dosing at day minus 6. The animals were sacrificed at day 3. Total serum was collected as well as liver and kidney.

[4] = Oligonucleotide content in liver and kidney by ELISA (Example 6); format: in vivo, C57BL6/J mice; settings: day 3
Experimental: as §3
The oligonucleotide content in the liver and kidney was measured using ELISA (see for example Straarup et al 2010 Nucleic Acid Res Vol 38 pp 7100-7111), results are shown in Table 11A and 11B.

[5] = test system: total cholesterol in serum; test: Total cholesterol in serum (Example 6); format: in vivo, C57BL6/J mice; settings: day 3
Experimental: as §3
Total cholesterol in serum was measured using ABX Pentra Cholesterol CP (Triolab, Brondby, Denmark) according to the manufacturer's instructions.

[6] = ALT in serum (Example 6); format: in vivo, C57BL6/J mice; settings: day 3
Experimental: as §3
ALT (Alanine aminotransferase) was measured using ABX Pentra ALT CP reagent (A11A01627 Triolab, Brondby, Denmark. The results are shown in Table 13.

[7] = test system: ApoB mRNA; test: ApoB mRNA knock down in primary mouse hepatocytes, qPCR (Example 9); format: cell-based, C57BL/6J female mice; settings: n = 2
Experimental: Primary mouse hepatocytes were isolated from C57BL/6J female mice. The mice were anesthesized and the liver was perfused at a flow rate of 7 ml per min through the vena cava using Hank's balanced salt solution containing 15 mM Hepes and 0.38 mM EGTA for 5 min followed by collagenase solution (Hank's balanced salt solution containing 0.17 mg/ml Collagenase type 2 (Worthington 4176), 0.03% BSA, 3.2 mM CaCl2 and 1.6 g/I NaHCO3) for 12 min. Following perfusion, the liver was removed and the liver capsule was opened, the liver suspension was filtered through 70 μm cell strainer using William E medium. The cell suspension was centrifuged for 3 min at 50×g. Viable hepatocytes were further enriched by gradient centrifugation with 45% Percoll (Sigma cat. No. P4937) for 10 min at 50×g. The pellet was washed and resuspended in 25 ml William E medium (Sigma cat. no. W1878 complemented with 1×Pen/Strep, 2 mM L-glutamine and 10% FBS (ATCC #30-2030)), and seeded at 25.000 cells per well in collagen coated 96 well plates. After 3 hours the medium was exchanged and the oligonucleotides were added using 3 fold dilutions from […]. Two different incubation regimens were used, one where the cells were incubated 4 hours with oligonucleotide following a medium exchange and continued incubation to a total of 72 hours. […]

[8] = test system: primary mouse hepatocytes; test: Oligonucleotide content in primary mouse hepatocyte culture by ELISA (Example 9); format: in vitro ADME, C57BL/6J female mice
Experimental: Primary mouse hepatocytes were isolated from C57BL/6J female mice. The mice were anesthesized and the liver was perfused at a flow rate of 7 ml per min through the vena cava using Hank's balanced salt solution containing 15 mM Hepes and 0.38 mM EGTA for 5 min followed by collagenase solution (Hank's balanced salt solution containing 0.17 mg/ml Collagenase type 2 (Worthington 4176), 0.03% BSA, 3.2 mM CaCl2 and 1.6 g/I NaHCO3) for 12 min. Following perfusion, the liver was removed and the liver capsule was opened, the liver suspension was filtered through 70 μm cell strainer using William E medium. The cell suspension was centrifuged for 3 min at 50×g. Viable hepatocytes were further enriched by gradient centrifugation with 45% Percoll (Sigma cat. No. P4937) for 10 min at 50×g. The pellet was washed and resuspended in 25 ml William E medium (Sigma cat. no. W1878 complemented with 1×Pen/Strep, 2 mM L-glutamine and 10% FBS (ATCC #30-2030)), and seeded at 25.000 cells per well in collagen coated 96 well plates. […] Two different incubation regimens were used, one where the cells were incubated 4 hours with oligonucleotide following a medium exchange and continued incubation to a total of 72 hours. In the second regimen the cells were incubated for 72 hours with the oligonucleotides.
Oligonucleotide content analysis was performed using ELISA (see for example Straarup et al 2010 Nucleic Acid Res Vol 38 pp 7100-7111), results are shown in table 20 and 21 below.

Substance: 5′-GS^mCSaStStSgSgStSaStSTS^mCSA-3′ [Compound F, reference compound]
- ApoB mRNA expression as % of saline, mRNA kidney ([1]; day 10, kidney): 24.7 % of saline
- ApoB mRNA expression as % of saline, mRNA liver ([1]; day 10, liver): 74.5 % of saline
- Oligonucleotide content, Kidney [2]: 1.370 μg/g tissue
- Oligonucleotide content, Liver [2]: 0.028 μg/g tissue
- ApoB mRNA expression as % of saline in kidney ([3]; 0.22 mg/kg single iv dose): 68.0 % of saline
- ApoB mRNA/mGAPDH expression as % of saline in liver ([3]; 0.22 mg/kg single iv dose): 87.5 % of saline
- ApoB mRNA expression as % of saline in kidney ([3]; 0.45 mg/kg single iv dose): 51.1 % of saline
- ApoB mRNA/mGAPDH expression as % of saline in liver ([3]; 0.45 mg/kg single iv dose): 90.2 % of saline
- ApoB mRNA expression as % of saline in kidney ([3]; 0.89 mg/kg single iv dose): 29.0 % of saline
- ApoB mRNA/mGAPDH expression as % of saline in liver ([3]; 0.89 mg/kg single iv dose): 53.8 % of saline
- Oligonucleotide content in kidney tissue ([4]; 0.22 mg/kg single iv dose): 0.337 µg/g
- Oligonucleotide content in liver tissue ([4]; 0.22 mg/kg single iv dose): 0.059 µg/g
- Oligonucleotide content in kidney tissue ([4]; 0.45 mg/kg single iv dose): 0.506 µg/g
- Oligonucleotide content in liver tissue ([4]; 0.45 mg/kg single iv dose): 0.173 µg/g
- Oligonucleotide content in kidney tissue ([4]; 0.89 mg/kg single iv dose): 1.050 µg/g
- Oligonucleotide content in liver tissue ([4]; 0.89 mg/kg single iv dose): 0.470 µg/g
- serum cholesterol percent of saline ([5]; 0.22 mg/kg single iv dose): 104.3% of saline
- serum cholesterol percent of saline ([5]; 0.45 mg/kg single iv dose): 86.8% of saline
- serum cholesterol percent of saline ([5]; 0.89 mg/kg single iv dose): 66.9% of saline
- ALT levels (U/L) in serum at day 3 as % of saline ([6]; 0.22 mg/kg single iv dose): 91 % of saline
- ALT levels (U/L) in serum at day 3 as % of saline ([6]; 0.45 mg/kg single iv dose): 151 % of saline
- ALT levels (U/L) in serum at day 3 as % of saline ([6]; 0.89 mg/kg single iv dose): 217 % of saline
- IC50 ([7]; 4 h pulse/72 h total incubation): 2.62 µM
- IC50 ([7]; 72 h oligonucleotide treatment): 0.331 µM
- oligonucleotide content in the cell culture ([8]; 4 h pulse, 72 hours total incubation, 1 μM): 0.1 pmol/μg protein
- oligonucleotide content in the cell culture ([8]; 4 h pulse, 72 hours total incubation, 3 μM): 0.4 pmol/μg protein
- oligonucleotide content in the cell culture ([8]; 4 h pulse, 72 hours total incubation, 9 μM): 1.0 pmol/μg protein
- oligonucleotide content in the cell culture ([8]; 4 h pulse, 72 hours total incubation, 27 μM): 1.4+/−0.2 pmol/μg protein
- oligonucleotide content in the cell culture ([8]; 72 h oligonucleotide treatment, 0.11 μM): 0.5 pmol/μg protein
- oligonucleotide content in the cell culture ([8]; 72 h oligonucleotide treatment, 0.33 μM): 1.5 pmol/μg protein
- oligonucleotide content in the cell culture ([8]; 72 h oligonucleotide treatment, 1 μM): 7.9 pmol/μg protein
- oligonucleotide content in the cell culture ([8]; 72 h oligonucleotide treatment, 3 μM): 14.5 pmol/μg protein
- oligonucleotide content in the cell culture ([8]; 72 h oligonucleotide treatment, 9 μM): 34.1 pmol/μg protein
- oligonucleotide content in the cell culture ([8]; 72 h oligonucleotide treatment, 27 μM): 34.2+/−0.7 pmol/μg protein
